Assays:
[1] = target: T1, 5-hydroxytryptamine receptor 2A (Rattus norvegicus, UniProt P14842); test: Compound was evaluated for its ability to displace (+/-)[125I]-DOI from 5-hydroxytryptamine 2A receptor in cloned rat cell culture
[2] = target: T2, 5-hydroxytryptamine receptor 2C (Rattus norvegicus, UniProt P08909); test: Compound was evaluated for its ability to displace (+/-)[125I]-DOI from 5-hydroxytryptamine 2C receptor in cloned rat cell culture
T2 sequence (P08909 whole entry): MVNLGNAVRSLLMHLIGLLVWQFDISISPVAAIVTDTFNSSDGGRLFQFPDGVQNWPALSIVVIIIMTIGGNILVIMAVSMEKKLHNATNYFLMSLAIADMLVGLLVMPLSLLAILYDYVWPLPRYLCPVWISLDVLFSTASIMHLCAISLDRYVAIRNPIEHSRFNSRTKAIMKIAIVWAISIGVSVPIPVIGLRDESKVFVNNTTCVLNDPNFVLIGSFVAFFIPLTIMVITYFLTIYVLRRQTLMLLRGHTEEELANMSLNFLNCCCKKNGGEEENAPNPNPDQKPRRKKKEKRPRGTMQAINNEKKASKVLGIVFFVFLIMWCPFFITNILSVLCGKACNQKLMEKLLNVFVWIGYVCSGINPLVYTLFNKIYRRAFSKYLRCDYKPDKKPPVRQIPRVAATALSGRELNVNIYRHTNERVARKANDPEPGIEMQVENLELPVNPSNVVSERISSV

[3] = target: T1, 5-hydroxytryptamine receptor 2A; test: biochemical
Description: Compound was evaluated for its ability to displace [125I](R)-DOI from 5-hydroxytryptamine 2A receptor in cloned rat prefrontal cortex homogenate

Rattus norvegicus = species: Rattus norvegicus; test: Drug discrimination in LSD-trained rats; type: functional

T1 sequence (P14842 whole entry): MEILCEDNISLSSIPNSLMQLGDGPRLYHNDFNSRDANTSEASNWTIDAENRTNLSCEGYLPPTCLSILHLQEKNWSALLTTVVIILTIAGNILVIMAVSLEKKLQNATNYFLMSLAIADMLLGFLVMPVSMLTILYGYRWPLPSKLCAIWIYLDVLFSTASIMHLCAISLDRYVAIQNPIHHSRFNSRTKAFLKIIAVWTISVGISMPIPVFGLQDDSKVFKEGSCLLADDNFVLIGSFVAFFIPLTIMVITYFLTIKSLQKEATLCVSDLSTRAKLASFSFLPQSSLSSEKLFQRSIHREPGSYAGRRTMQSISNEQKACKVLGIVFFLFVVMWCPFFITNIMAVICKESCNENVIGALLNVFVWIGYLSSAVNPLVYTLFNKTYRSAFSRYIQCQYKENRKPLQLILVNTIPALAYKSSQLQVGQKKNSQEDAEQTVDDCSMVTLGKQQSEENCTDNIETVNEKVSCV

`Cc1c2ccoc2c(CC(C)N)c2occc12` (stereo not drawn) showed a Ki [1] of 1.8 nM and a Ki [2] of 0.9 nM.

For `COc1cc(C)cc(OC)c1CC(C)N` (stereo not drawn), the Ki [1] was 49 nM and the Ki [2] was 50 nM.

`COc1cc(CC(C)N)c(OC)cc1C` (stereo not drawn) [DOM] gave a Ki [3] of 19 nM and an ED50 (Rattus norvegicus) of 0.89 µmol/kg.

Molecule `Cc1c2c(c(CC(C)N)c3c1CCO3)OCC2` (stereo not drawn) has a Ki [1] of 6.3 nM and a Ki [2] of 7.5 nM.
